{"source": "ChEMBL document CHEMBL4316596", "about": "“Antimicrobial Peptides with High Proteolytic Resistance for Combating Gram-Negative Bacteria” (J Med Chem, 2019)", "key": {"[1]": {"system": "Pseudomonas aeruginosa", "assay": "Ratio of MBC against Pseudomonas aeruginosa ATCC 27853 after 50 passages to MBC against Pseudomonas aeruginosa ATCC 27853", "assay_type": "functional"}, "[2]": {"target": "Trypsin (Homo sapiens, UniProt P07477+P07478+P35030)", "assay": "Stability of the compound assessed as trypsin (unknown origin)-mediated compound hydrolysis after 1 hrs by SDS-PAGE analysis", "assay_type": "ADME, protein assay"}, "[3]": {"target": "Chymotrypsin (Homo sapiens, UniProt Q99895+P17538+P40313+Q6GPI1)", "assay": "Stability of the compound assessed as chymotrypsin (unknown origin)-mediated compound hydrolysis after 1 hrs by SDS-PAGE analysis", "assay_type": "ADME, protein assay"}, "[4]": {"assay": "Stability of the compound assessed as pepsin (unknown origin)-mediated compound hydrolysis after 1 hrs by SDS-PAGE analysis", "assay_type": "ADME", "conditions": "human"}, "[5]": {"assay": "Stability of the compound assessed as Tritirachium album proteinase K-mediated compound hydrolysis after 1 hrs by SDS-PAGE analysis", "assay_type": "ADME", "conditions": "parengyodontium album"}, "[6]": {"system": "Escherichia coli", "assay": "Bactericidal activity against Escherichia coli ATCC 25922 assessed as elimination of bacterial cells at MBC after 30 mins by time kill assay", "assay_type": "functional"}, "[7]": {"system": "Escherichia coli", "assay": "Bactericidal activity against Escherichia coli ATCC 25922 assessed as elimination of bacterial cells at MBC after 60 mins by time kill assay", "assay_type": "functional"}, "[8]": {"assay": "Toxicity in ICR mouse assessed as effect on ALT levels in serum at 40 mg/kg, ip administered every 12 hrs for 3 days measured at 72 hrs post dose", "assay_type": "organism-based", "conditions": "in vivo"}, "[9]": {"assay": "Renal toxicity in ICR mouse assessed as effect on BUN levels in serum at 40 mg/kg, ip administered every 12 hrs for 3 days measured at 72 hrs post dose", "assay_type": "organism-based", "conditions": "in vivo"}, "[10]": {"assay": "Toxicity in ICR mouse assessed as effect on AST levels in serum at 20 mg/kg, ip administered every 12 hrs for 3 days measured at 72 hrs post dose", "assay_type": "organism-based", "conditions": "in vivo"}, "[11]": {"assay": "Toxicity in ICR mouse assessed as effect on ALT levels in serum at 20 mg/kg, ip administered every 12 hrs for 3 days measured at 72 hrs post dose", "assay_type": "organism-based", "conditions": "in vivo"}, "[12]": {"assay": "Renal toxicity in ICR mouse assessed as effect on BUN levels in serum at 20 mg/kg, ip administered every 12 hrs for 3 days measured at 72 hrs post dose", "assay_type": "organism-based", "conditions": "in vivo"}, "[13]": {"system": "Escherichia coli", "assay": "Bactericidal activity against Escherichia coli ATCC 25922 incubated for 4 hrs followed by culture spread on agar plates and cultured overnight in presence of 0.125 to 4 mg/ml proteinase K", "assay_type": "functional, organism-based"}, "[14]": {"assay": "Stability of the compound assessed as pepsin (unknown origin)-mediated compound hydrolysis by LC-MS analysis", "assay_type": "ADME", "conditions": "human"}, "[15]": {"assay": "Stability of the compound assessed as Tritirachium album proteinase K-mediated compound hydrolysis by LC-MS analysis", "assay_type": "ADME", "conditions": "parengyodontium album"}, "[16]": {"system": "Escherichia coli", "assay": "Induction of cell membrane disruption in Escherichia coli ATCC 25922 at MBC after 30 mins using FITC-labelled peptides by propidium iodide-staining based confocal fluorescent microscopy", "assay_type": "organism-based"}, "[17]": {"system": "Lipopolysaccharide (LPS)", "assay": "Displacement of BODIPY-TR-cadaverine from Escherichia coli O111:B4 LPS at 4 uM after 1 hr by spectrofluorophotometric method relative to control"}, "[18]": {"system": "Lipopolysaccharide (LPS)", "assay": "Displacement of BODIPY-TR-cadaverine from Escherichia coli O111:B4 LPS after 1 hr by spectrofluorophotometric method"}, "[19]": {"system": "Lipopolysaccharide (LPS)", "assay": "Binding affinity to Escherichia coli O111:B4 LPS by SPR method"}, "[20]": {"system": "Escherichia coli", "assay": "Bactericidal activity against Escherichia coli O111:B4 assessed as reduction in colony forming units at MBC after 90 mins in presence of LPS", "assay_type": "functional, organism-based"}, "[21]": {"assay": "Cytotoxicity against mouse RAW264.7 cells assessed as survival rate at 16 uM after 18 to 24 hrs by MTT assay relative to control", "assay_type": "cell-based", "conditions": "read-out: Activity"}, "[22]": {"system": "RAW264.7", "assay": "Inhibition of LPS-stimulated NO production in mouse RAW264.7 cells at 16 uM after 20 hrs by Griess reagent-based assay", "assay_type": "functional, cell-based"}, "[23]": {"system": "RAW264.7", "assay": "Inhibition of LPS-stimulated TNFalpha production in mouse RAW264.7 cells at 16 uM after 20 hrs by […]", "assay_type": "functional, cell-based"}, "[24]": {"system": "Escherichia coli", "assay": "Induction of outer membrane permeabilization in Escherichia coli ATCC 25922 at 1 to 64 uM by NPN-dye based assay", "assay_type": "organism-based"}, "[25]": {"system": "Lipid bilayer", "assay": "Induction of membrane disruption in LPS/PC/PG unilamellar vesicles assessed as calcein-entrapped liposome leakage at 2 uM after 15 mins by fluorescence assay"}, "[26]": {"system": "Lipid bilayer", "assay": "Induction of membrane disruption in LPS/POPC/POPG unilamellar vesicles assessed as calcein-entrapped liposome leakage after 15 mins by fluorescence assay"}, "[27]": {"system": "Escherichia coli", "assay": "Induction of cytoplasmic membrane depolarization in Escherichia coli ATCC 25922 assessed as induction cytoplasmic ONPG release at 4 uM up to 120 mins by DiSC3-5 dye-based fluorescence spectrophotometric method", "assay_type": "functional, organism-based"}, "[28]": {"system": "Escherichia coli", "assay": "Induction of membrane disruption in Escherichia coli ATCC 25922 assessed as pore formation at MBC after 1 hr by SEM analysis", "assay_type": "functional, organism-based"}, "[29]": {"system": "Escherichia coli", "assay": "Induction of membrane disruption in Escherichia coli ATCC 25922 assessed as membrane content leakage at MBC after 1 hr by SEM analysis", "assay_type": "functional, organism-based"}, "[30]": {"system": "Escherichia coli", "assay": "Induction of membrane disruption in Escherichia coli ATCC 25922 assessed as formation of broken membrane fragments at MBC after 1 hr by SEM analysis", "assay_type": "functional, organism-based"}, "[31]": {"system": "Escherichia coli", "assay": "Induction of membrane disruption in Escherichia coli ATCC 25922 assessed as pore formation at MBC after 1 hr by TEM analysis", "assay_type": "functional, organism-based"}, "[32]": {"system": "Escherichia coli", "assay": "Induction of membrane disruption in Escherichia coli ATCC 25922 assessed as outer membrane separation at MBC after 1 hr by TEM analysis", "assay_type": "functional, organism-based"}, "[33]": {"system": "Escherichia coli", "assay": "Induction of membrane disruption in Escherichia coli ATCC 25922 assessed as sparse cytoplasmic distribution at MBC after 1 hr by TEM analysis", "assay_type": "functional, organism-based"}, "[34]": {"assay": "Drug localisation at cell membrane of Escherichia coli ATCC 25922 at MBC after 30 mins using FITC-labelled peptides by propidium iodide-staining based confocal fluorescent microscopy", "assay_type": "ADME, cell membranes", "conditions": "0.5 h"}, "[35]": {"system": "Lipid bilayer", "assay": "Induction of membrane disruption in POPC/POPG unilamellar vesicles assessed as calcein-entrapped liposome leakage at 1 to 64 uM after 15 mins by fluorescence assay"}, "[36]": {"system": "Escherichia coli", "assay": "Bactericidal activity against Escherichia coli ATCC 25922 using FITC-labelled peptide incubated for 4 hrs followed by culture spread on agar plates and cultured overnight", "assay_type": "functional", "conditions": "ATCC 25922, 4 h"}, "[37]": {"system": "Escherichia coli", "assay": "Bactericidal activity against Escherichia coli ATCC 25922 assessed as elimination of bacterial cells at MBC after 5 mins by time kill assay", "assay_type": "functional"}, "[38]": {"system": "HEK-293T", "assay": "Cytotoxicity against HEK293T cells assessed as cell death at 32 uM after 18 to 24 hrs by MTT assay relative to control", "assay_type": "cell-based", "conditions": "human"}, "[39]": {"assay": "Cytotoxicity against IPECJ2 cells assessed as cell death at 16 uM after 18 to 24 hrs by MTT assay relative to control", "assay_type": "cell-based, Sus scrofa", "conditions": "pig"}, "[40]": {"assay": "Cytotoxicity against mouse RAW264.7 cells assessed as cell viability at 4 uM after 18 to 24 hrs by MTT assay relative to control", "assay_type": "cell-based", "conditions": "read-out: Activity"}, "[41]": {"assay": "Hemolytic activity against human RBC at 128 uM after 1 hr", "assay_type": "ADME, cell-based, Erythrocyte", "conditions": "red blood cells (erythrocytes), read-out: Activity"}}, "note": "Activity calls are given as the source filed them. The rule behind the calls is not given here.", "data": [{"molecule": "CC[C@H](C)[C@H](NC(=O)CN)C(=O)NCC(=O)N[C@@H](C)C(=O)N[C@H](C(=O)N[C@@H](CC(C)C)C(=O)N[C@@H](CCCCN)C(=O)N[C@H](C(=O)N[C@@H](CC(C)C)C(=O)N[C@H](C(=O)N[C@H](C(=O)NCC(=O)N[C@@H](CC(C)C)C(=O)N1CCC[C@H]1C(=O)N[C@@H](C)C(=O)N[C@@H](CC(C)C)C(=O)N[C@H](C(=O)N[C@@H](CO)C(=O)N[C@@H](Cc1c[nH]c2ccccc12)C(=O)N[C@H](C(=O)N[C@@H](CCCCN)C(=O)N[C@@H](CCCNC(=N)N)C(=O)N[C@@H](CCCCN)C(=O)N[C@@H](CCCNC(=N)N)C(=O)N[C@@H](CCC(N)=O)C(=O)N[C@@H](CCC(N)=O)C(N)=O)[C@@H](C)CC)[C@@H](C)CC)[C@@H](C)O)[C@@H](C)O)C(C)C)C(C)C", "note": "[MELITTIN]", "values": [{"measurement": "Ratio", "setting": "[1]", "value": 256}, {"measurement": "Stability", "setting": "[2]", "value": "Unstable"}, {"measurement": "Stability", "setting": "[3]", "value": "Unstable"}, {"measurement": "Stability", "setting": "[4]", "value": "Unstable"}, {"measurement": "Stability", "setting": "[5]", "value": "Unstable"}]}, {"molecule": "H-LKPLLKPLLKPLLKPLLKPLLKPLLKPL-NH2", "values": [{"measurement": "Activity", "setting": "[6]", "value": ">99.99", "unit": "%"}]}, {"molecule": "H-IRPIIRPIIRPIIRPIIRPIIRPIIRPI-NH2", "values": [{"measurement": "Activity", "setting": "[7]", "value": ">99.99", "unit": "%"}, {"measurement": "Activity", "setting": "[8]", "value": "Non-Toxic"}, {"measurement": "Activity", "setting": "[9]", "value": "Non-Toxic"}, {"measurement": "Activity", "setting": "[10]", "value": "Toxic"}, {"measurement": "Activity", "setting": "[11]", "value": "Toxic"}, {"measurement": "Activity", "setting": "[12]", "value": "Toxic"}, {"measurement": "Activity", "setting": "[13]", "value": "Active"}, {"measurement": "Stability", "setting": "[14]", "value": "Stable"}, {"measurement": "Stability", "setting": "[15]", "value": "Stable"}, {"measurement": "Activity", "setting": "[16]", "value": "Active"}, {"measurement": "Activity", "setting": "[17]", "value": 70, "unit": "%"}, {"measurement": "Activity", "setting": "[18]", "value": "Dose-dependent effect"}, {"measurement": "Activity", "setting": "[19]", "value": "Dose-dependent effect"}, {"measurement": "Activity", "setting": "[20]", "value": "inactive"}, {"measurement": "viability at 16 µM", "setting": "[21]", "value": "> 80", "unit": "%"}, {"measurement": "inhibition", "setting": "[22]", "value": "Active"}, {"measurement": "inhibition", "setting": "[23]", "value": "Active"}, {"measurement": "Activity", "setting": "[24]", "value": "Active"}, {"measurement": "Activity", "setting": "[25]", "value": 30, "unit": "%"}, {"measurement": "Activity", "setting": "[26]", "value": "Dose-dependent effect"}, {"measurement": "Activity", "setting": "[27]", "value": "Active"}, {"measurement": "Activity", "setting": "[28]", "value": "Active"}, {"measurement": "Activity", "setting": "[29]", "value": "Active"}, {"measurement": "Activity", "setting": "[30]", "value": "Active"}, {"measurement": "Activity", "setting": "[31]", "value": "Active"}, {"measurement": "Activity", "setting": "[32]", "value": "Active"}, {"measurement": "Activity", "setting": "[33]", "value": "Active"}, {"measurement": "Drug uptake", "setting": "[34]", "value": "Active"}, {"measurement": "Activity", "setting": "[35]", "value": "Active"}, {"measurement": "MBC", "setting": "[36]", "value": 4, "unit": "µM"}]}, {"molecule": "H-IKPIIKPIIKPIIKPIIKPIIKPIIKPI-NH2", "values": [{"measurement": "Activity", "setting": "[13]", "value": "Active"}]}, {"molecule": "H-LRPLLRPLLRPLLRPLLRPLLRPLLRPL-NH2", "values": [{"measurement": "Activity", "setting": "[37]", "value": ">99.99", "unit": "%"}, {"measurement": "Activity", "setting": "[38]", "value": 80, "unit": "%"}, {"measurement": "Activity", "setting": "[39]", "value": 80, "unit": "%"}, {"measurement": "viability at 4 µM", "setting": "[40]", "value": 7.52, "unit": "%"}, {"measurement": "hemolysis at 1 h, 128 µM", "setting": "[41]", "value": "> 40", "unit": "%"}]}]}
